Target: PCP binding sites of the NMDA receptor complex
Design: species or system rat
Conditions: for IC50: displacing (+)-[3H]MK-801 bound to rat brain homogenates, 0.5-1 nM radioligand, 100 μM glutamate, 30 μM glycine, 2 h room temperature, pH 7.4, mean of three experiments in duplicate ±SEM; for binding potency compared with corresponding S enantiomer: R enantiomers 1, 3, 5, 7 versus 2, 4, 6, 8; for Relative Potency (%): relative to PCP = 100%, displacing (+)-[3H]MK-801

Row | SMILES | IC50 | binding potency compared with corresponding S enantiomer (in words) | Relative Potency (%) | binding difference between enantiomeric pair of compounds 3 and 4 (compound 3 (R) versus compound 4 (S)) | binding potency compared with PCP (in words)
1 | N[C@]12CC=CC[C@H]1Cc1ccccc12 [Compound 1] | 114 ± 14 nM | more potent in binding than the corresponding enantiomers of S stereochemistry | 31% | – | –
2 | N[C@@]12CC=CC[C@@H]1Cc1ccccc12 [Compound 2] | 2240 ± 135 nM | – | 2% | – | –
3 | N[C@]12CCCC[C@H]1Cc1ccccc12 [Compound 3] | 19 ± 1 nM | more potent in binding than the corresponding enantiomers of S stereochemistry | 184% | 73 fold | more potent in binding than PCP
4 | N[C@@]12CCCC[C@@H]1Cc1ccccc12 [Compound 4] | 1390 ± 49 nM | – | 3% | – | –
5 | CCN[C@]12CCCC[C@H]1Cc1ccccc12 [Compound 7] | 68 ± 7 nM | more potent in binding than the corresponding enantiomers of S stereochemistry | 51% | – | –
6 | CCN[C@@]12CCCC[C@@H]1Cc1ccccc12 [Compound 8] | 546 ± 40 nM | – | 6% | – | –
7 | c1ccc(C2(N3CCCCC3)CCCCC2)cc1 [PCP, phencyclidine, reference compound] | 35 ± 1 nM | – | 100% | – | –
8 | c1csc(C2(N3CCCCC3)CCCCC2)c1 [TCP, 1-[1-(2-thienyl)-cyclohexyl]-piperidine, reference compound] | 11 ± 1 nM | – | 318% | – | –

From patent publication US5132313A, “Non-competitive NMDA receptor antagonists and methods for their use” (priority 1989, dated 1992)
